Where a SMILES comes first, the peptide text is derived from it. [ ]: non-standard residue; d: D form. pGlu = O=C1CC[C@@H](C(=O)O)N1
Tested on: diet-induced obese male mice
Assay: Metabolic chamber studies after a single dose (food intake, RER, movement, VO2, VCO2)
Assay type: in vivo, mouse
Settings: single dose 50 mg/kg intraperitoneal
Description: Fig. 5 Functional studies of […] in feeding and energy balance in mice. a Schematic of the primary amino acid sequence for full-length mouse GDF15 preproprotein and annotation of CAP-GDF15 sequence as well as the canonical GDF15 hormone sequence. b–d Food intake (b), respiratory exchange ratio (RER, c), and ambulatory activity (d) of 12–16-week diet-induced obese male mice following a single treatment of CAP-GDF15 (50 mg/kg, intraperitoneal) or vehicle control. e–g Food intake (e), RER (f), and ambulatory activity (g) of 12–16-week diet-induced obese male mice following a single treatment of scrambled CAP-GDF15 (50 mg/kg, intraperitoneal, scrambled sequence: pGlu-[…]-NH2) or vehicle control. h, i 3-day food intake (h) and body weight (i) of 12–16-week diet-induced obese male mice following treatment with CAP-GDF15 or scrambled CAP-GDF15 (50 mg/kg/day, IP), or vehicle control. […] For (b-i), p values were calculated by two-way ANOVA. Source data are provided as a Source Data file.
Animal experiments were performed according to a procedure approved by the Stanford University Administrative Panel on Laboratory Animal Care. Mice were maintained in 12-h light-dark cycles at 22 °C and about 50% relative humidity and fed a standard irradiated rodent diet. Where indicated, a high-fat diet (D12492, Research Diets 60% kcal from fat) was used. Male C57BL/6 J (stock number 000664) and male C57BL/6 J DIO mice were purchased from the Jackson Laboratory (stock number 380050). For studies in high-fat diet-fed mice, peptides were dissolved in 18:1:1 (by volume) of saline:Kolliphor EL (Sigma Aldrich):DMSO and administered to mice by intraperitoneal injections at a volume of 10 µl/g at the indicated doses for the indicated times. For lipopolysacchardide injection, LPS (Sigma, #L2880-10MG) was dissolved in saline and administered to mice at a volume of 5 µl/g at indicated dose. For fasting, food was removed from mice for 16 h. For running, a six-lane Columbus Instruments animal treadmill (product 1055-SRM-D65) was used with following 1 h protocol: 10 min at 6 m/min, 50 min at 18 m/min, and increase every 2 min by 2 m/min for the last 10 minutes, all at 12° incline. For all treatment experiments, mice were mock injected with the vehicle for 3–5 days until body weights were stabilized. Heparin plasma was harvested by submandibular bleed. For all experiments, mice were randomly assigned to treatment groups. Experimenters were not blinded to groups.
For acute energy expenditure studies, food intake, RER, movement, VO2, and VCO2 were collected with CLAMS Oxymax Metabolic Cages. Mice were placed in individual metabolic cages for 24 hours prior to experiment. Mice were injected with either vehicle, 50 mg/kg CAP-GDF15, 50 mg/kg uncapped CAP-GDF15, or 50 mg/kg scrambled CAP-GDF15 at 5 pm at T = 0. […] All experiments were done with 3–5 month old DIO mice (Jackson, stock 380050), fed high-fat diet ad libitum.
Supplementary Figure 5. Additional measurements from metabolic chambers of mice treated with CAP-GDF15. a CAP-GDF15 plasma concentration after administration of CAP-GDF15 (50 mg/kg, intraperitoneal) or vehicle control. b-c VO2 (b) and VCO2 (c) of 12-16-week diet-induced obese male mice following a single treatment of CAP-GDF15 (50 mg/kg, intraperitoneal) or vehicle control. d-e VO2 (d) and VCO2 (e) of 12-16-week diet-induced obese male mice following a single treatment of scrambled CAP-GDF15 (50 mg/kg, intraperitoneal, scrambled sequence: p[…]-NH2) or vehicle control. f Acute food intake of 12-16-week diet-induced obese male mice following a single treatment of CAP-GDF15 (50 mg/kg, intraperitoneal), uncapped CAP-GDF15 (50 mg/kg, intraperitoneal), or vehicle control. For (a), N=3/group; (b-c), N=12/group; for (d-e), N=8/group; for (f), N=5/group.
For (a-f), injection occurred at time T=0 (5:00pm). Data are shown as means ± SEM. For (b-i), p values were calculated by two-way ANOVA. Source data are provided as a Source Data

[1] = diet-induced obese male mice, N = 12/group

Question: Which results are given for `CC(C)C[C@H](NC(=O)[C@@H]1CCC(=O)N1)C(=O)N[C@@H](CCC(=O)O)C(=O)N[C@@H](CC(C)C)C(=O)N[C@@H](CCCNC(=N)N)C(=O)N[C@@H](CC(C)C)C(=O)N[C@@H](CCCNC(=N)N)C(=O)N[C@H](C(=O)N[C@@H](C)C(=O)N[C@@H](C)C(=O)NCC(=O)N[C@@H](CCCNC(=N)N)C(N)=O)C(C)C` [CAP-GDF15] ([pGlu]LELRLRVAAGR-NH2)?
Answer: suppression of food intake compared to vehicle-treated mice (12–16-week diet-induced obese male mice, 16 h after injection, N = 12 mice/group): ~ 60%; effect on carbon dioxide production (VCO2) [1]: did not alter; effect on oxygen consumption (VO2) [1]: did not alter; effect on movement (ambulatory activity) (diet-induced obese male mice, N = 12 mice/group): did not alter; effect on respiratory exchange ratio (RER) (diet-induced obese male mice, metabolic chambers): suppression
